Assay results from PMC5859971 (Genes & Development, 2018).
Several values for one entry are separate records, joined by “and”; a condition that tells them apart may be missing. Equal entries are not always repeated.

How the values were obtained:
[1] = molecular target: T1, SF3b subcomplex (SF3B1 residues 454–1304, SF3B3, PHF5A, SF3B5) (Homo sapiens, UniProt O75533+Q7RTV0); experiment: Microscale thermophoresis (MST) compound binding to SF3b subcomplex; conditions: SF3b subcomplex bound to NTA-647 fixed at 10 nM
T1 construct: SF3B1 was limited to the HEAT repeat domain from residues 454–1304 and cloned in-frame with an N-terminal Flag tag; Truncated SF3B1 and full-length SF3B3, PHF5A, and SF3B5 were synthesized; made in house; host or cells: SF21 insect cells (baculovirus, pFastBac1)
Method: The four-protein complex composed of the HEAT repeats of SF3B1 (residues 454–1304) as well as full-length SF3B3, SF3B5, and PHF5A was coexpressed and purified from insect cells. This complex is necessary and sufficient for compound binding in a scintillation proximity assay (SPA) format ([Teng et al. 2017]).
The SF3b subcomplex was first titrated against a fixed concentration (25 nM) of fluorescent label (NTA-647) to determine the optimal concentrations of protein and label for the MST experiment. After 15 min of incubation at room temperature, samples were loaded into Monolith NT.115 capillaries, and MST analysis was performed using a Monolith NT.115Pico. […] For subsequent compound-binding experiments, the SF3b subcomplex bound to NTA-647 was fixed at 10 nM, and the compound was titrated from 50 µM to 3 pM. After 15 min of incubation, samples were loaded into capillaries, and analysis was performed as described previously.
Binding of E7107 to SF3b 4-protein complex by MicroScale Thermophoresis (MST). The complex is
labeled with the fluorescent dye NTA-647 and kept constant at 10 nM. E7107 was titrated and a KD of
3.6 nM was determined for the interaction.
(1 picture or pasted object on this page, not shown here)

[2] = molecular target: T2, wild-type mini-SF3b complex (4-protein SF3b complex) (Homo sapiens, UniProt O75533+Q7RTV0); experiment: Scintillation proximity assay (SPA) competition with 3H-labeled pladienolide probe; type: binding; conditions: competition with 10 nM 3H-labeled pladienolide probe, 25 nM protein; read-out: SPA IC50
T2 construct: SF3B1 was limited to the HEAT repeat domain from residues 454–1304 and cloned in-frame with an N-terminal Flag tag; Truncated SF3B1 and full-length SF3B3, PHF5A, and SF3B5 were synthesized; made in house; host or cells: SF21 insect cells (baculovirus, pFastBac1)
Method: (§1) To further validate the pose of the compound, we analyzed the activity of several related chemical probes using the SPA with the purified protein complex ([Teng et al. 2017]). The SPA is formatted as a competition assay in which the purified protein complex is captured on a bead containing scintillant, incubated with test compounds over a dose response, and then competed off with a fixed concentration of ^3H-Plad compound. IC50 curves are then measured from the resulting light emitted from the bead (Table 1; Supplemental Fig. S4). In addition, we tested the probes in viability assays in two engineered cell lines: HCT116-PHF5A^WT and the sensitization line HCT116-PHF5A^R38C (Table 1; Supplemental Fig. S5). This facilitates profiling of chemical probe activity in the PHF5A background (wild type and mutant). The relative expression levels were further confirmed by Western blot analysis (Supplemental Fig. S5).
Batch immobilization of the anti-Flag antibody (Sigma) to the anti-mouse PVT SPA scintillation beads (PerkinElmer) was prepared as follows. For every 1.5 mg of beads, 10 µg of antibody was prepared in 150 µL of PBS. The antibody–bead mixture was incubated for 30 min at room temperature and centrifuged at 18,000g for 5 min. One-hundred-fifty microliters of PBS was used to resuspend every 1.5 mg of antibody–bead mixture. The aforementioned mini-SF3b complex was tested for ^3H-labeled pladienolide probe binding ([Kotake et al. 2007]). One-hundred microliters of binding reactions was prepared with […] of bead slurry and 0 or 50 nM protein in buffer (20 mM HEPES at pH 8, 200 mM KCl, 5% glycerol). The mixture was incubated for 30 min, and varying concentrations of ^3H-labeled pladienolide probe were added. The mixture was incubated for 30 min, and luminescence signals were read using a MicroBeta2 plate counter (PerkinElmer). Compound competition studies were performed with the wild-type mini-SF3b complex. One-hundred microliters of binding reactions was prepared with 50 µL of bead slurry, 25 nM protein in buffer, and compounds at varying concentrations. After 30 min of preincubation, 10 nM ^3H-labeled pladienolide probe was added. The reactions were incubated for 30 min, and luminescence signals were read.
The Scintillation proximity assay (SPA) competition assay with 10 nM 3H tracer for different Pladienolide analogs binding to the 4-protein SF3b complex. Error bars represent STD for 2 or more measurements. Red = E7107, Orange = PladD, Purple = PladF, Green = compound 2, red = compound 3, gray = compound 4, black = compound 5, blue = compound 6. […]

HCT116-PHF5A^R38C = experiment: CellTiter-Glo viability assay, HCT116-PHF5A^R38C; type: cell-based, human
Method: as §1
Parental HCT116 cells were obtained from American Type Culture Collection and cultured in RPMI 1640 medium supplemented with 10% fetal bovine serum. PHF5A R38C was generated using the Agilent QuikChange II kit and was cloned into pLenti6.3/V5 as described ([Teng et al. 2017]). The verified clone was used for lentivirus production using X293T cells. Parental HCT116 cells were infected with virus and selected with blasticidin S at 10 µg mL^−1 for 1 wk. Engineered cell lines were subsequently maintained in the absence of antibiotic. Transgene expression was confirmed by Western blot analysis (Supplemental Fig. S4). For Western blot analysis, α-PHF5A rabbit polyclonal antibody (Protein Tech, 15554-1-AP) was used at 1:1000 dilution in LI-COR buffer, and anti-rabbit secondary antibody (LI-COR) was used at 1:5000 dilution. The Western blot was imaged using an Odyssey V3.0 imager (LI-COR). For CellTiter-Glo analysis of the wild-type and PHF5A^R38C cell lines, 500 cells were seeded in each well of a 384-well plate 1 d before compound addition. Dose response was measured in 11-point serial dilutions with a top dose of 10 µM. The percentage of DMSO was controlled throughout, and a DMSO-only control was included. Seventy-two hours after dosing, CellTiter-Glo reagent was added, incubated, and assayed on an EnVision multilabel reader (PerkinElmer). Luminescence values from each treatment were normalized to the average value of the respective DMSO control. The dose response curve plots were generated in GraphPad Prism, and GI50 values were calculated from nonlinear regression analysis. GI50 values for the wild-type and R38C mutant cell lines were plotted in Spotfire.

[3] = tested on: SF3B1^R1074H and PHF5A^Y36 mutations; conditions: strongest levels of resistance; ref Yokoi et al. 2011; Teng et al. 2017; cited from earlier work

T1 sequence (O75533 454-1304): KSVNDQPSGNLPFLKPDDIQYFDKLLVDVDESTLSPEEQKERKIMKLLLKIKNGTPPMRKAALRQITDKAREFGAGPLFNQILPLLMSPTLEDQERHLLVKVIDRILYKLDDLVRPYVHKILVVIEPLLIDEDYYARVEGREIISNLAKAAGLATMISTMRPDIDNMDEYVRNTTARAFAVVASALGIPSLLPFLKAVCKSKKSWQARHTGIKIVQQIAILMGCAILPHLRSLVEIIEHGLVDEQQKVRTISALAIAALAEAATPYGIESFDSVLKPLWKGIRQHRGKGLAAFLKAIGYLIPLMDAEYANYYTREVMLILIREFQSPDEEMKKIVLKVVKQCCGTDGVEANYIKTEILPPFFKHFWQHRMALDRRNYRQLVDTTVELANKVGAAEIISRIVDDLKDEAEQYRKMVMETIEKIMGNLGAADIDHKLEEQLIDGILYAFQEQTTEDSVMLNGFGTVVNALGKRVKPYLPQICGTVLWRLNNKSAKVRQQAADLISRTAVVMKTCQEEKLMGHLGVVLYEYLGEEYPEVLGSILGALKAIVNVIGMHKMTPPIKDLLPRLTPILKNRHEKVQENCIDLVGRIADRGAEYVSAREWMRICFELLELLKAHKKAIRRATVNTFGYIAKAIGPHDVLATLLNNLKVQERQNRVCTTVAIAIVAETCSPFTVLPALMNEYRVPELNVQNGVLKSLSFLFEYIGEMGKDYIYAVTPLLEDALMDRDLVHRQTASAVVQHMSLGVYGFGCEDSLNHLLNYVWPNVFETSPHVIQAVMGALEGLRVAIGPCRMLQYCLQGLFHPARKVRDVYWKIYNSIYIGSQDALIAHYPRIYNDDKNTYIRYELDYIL
T1 sequence (Q9BWJ5 whole entry, further chain, the tested form may be a part): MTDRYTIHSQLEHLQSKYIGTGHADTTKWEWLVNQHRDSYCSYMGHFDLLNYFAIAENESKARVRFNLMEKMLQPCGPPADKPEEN
T1 sequence (Q7RTV0 whole entry, the tested form may be a part): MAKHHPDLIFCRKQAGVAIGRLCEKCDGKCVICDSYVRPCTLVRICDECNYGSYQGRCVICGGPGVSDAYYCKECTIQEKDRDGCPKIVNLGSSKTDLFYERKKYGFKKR
T1 sequence (Q15393 whole entry, further chain, the tested form may be a part): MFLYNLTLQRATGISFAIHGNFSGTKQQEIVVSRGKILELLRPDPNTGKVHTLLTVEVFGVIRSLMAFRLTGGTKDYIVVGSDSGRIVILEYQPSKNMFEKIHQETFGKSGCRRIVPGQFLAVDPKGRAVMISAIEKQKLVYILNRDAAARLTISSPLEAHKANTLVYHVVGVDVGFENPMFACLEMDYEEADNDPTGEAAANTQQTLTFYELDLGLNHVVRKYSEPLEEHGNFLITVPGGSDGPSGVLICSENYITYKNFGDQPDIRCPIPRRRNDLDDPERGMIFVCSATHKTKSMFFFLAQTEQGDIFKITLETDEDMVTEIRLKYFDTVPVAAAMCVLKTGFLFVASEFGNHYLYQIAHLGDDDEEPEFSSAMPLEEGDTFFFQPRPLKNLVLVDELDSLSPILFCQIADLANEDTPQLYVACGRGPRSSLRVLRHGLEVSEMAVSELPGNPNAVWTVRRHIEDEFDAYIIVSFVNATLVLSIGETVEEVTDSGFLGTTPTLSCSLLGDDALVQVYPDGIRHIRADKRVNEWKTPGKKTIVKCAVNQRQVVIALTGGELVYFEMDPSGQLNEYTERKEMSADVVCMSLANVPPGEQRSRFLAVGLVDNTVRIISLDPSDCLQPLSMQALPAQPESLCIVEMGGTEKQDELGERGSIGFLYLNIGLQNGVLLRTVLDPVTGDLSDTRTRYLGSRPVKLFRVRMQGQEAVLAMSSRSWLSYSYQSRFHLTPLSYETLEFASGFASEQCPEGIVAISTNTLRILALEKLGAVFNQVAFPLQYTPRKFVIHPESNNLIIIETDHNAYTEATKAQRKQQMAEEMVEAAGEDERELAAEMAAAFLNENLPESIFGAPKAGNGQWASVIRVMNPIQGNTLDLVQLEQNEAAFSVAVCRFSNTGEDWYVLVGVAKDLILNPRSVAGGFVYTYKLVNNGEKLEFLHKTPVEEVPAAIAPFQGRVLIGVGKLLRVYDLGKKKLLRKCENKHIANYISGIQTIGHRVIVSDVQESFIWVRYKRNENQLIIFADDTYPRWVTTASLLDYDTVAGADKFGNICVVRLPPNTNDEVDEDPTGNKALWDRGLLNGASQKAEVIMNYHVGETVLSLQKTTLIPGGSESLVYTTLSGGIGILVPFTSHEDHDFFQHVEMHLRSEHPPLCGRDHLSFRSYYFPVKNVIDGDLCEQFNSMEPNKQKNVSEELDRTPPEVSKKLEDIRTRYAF
T2 sequence (Q7RTV0 whole entry, the tested form may be a part): as the sequence (Q7RTV0 whole entry, the tested form may be a part) above
T2 sequence (Q15393 whole entry, further chain, the tested form may be a part): as the sequence (Q15393 whole entry, further chain, the tested form may be a part) above
T2 sequence (O75533 454-1304): as the sequence (O75533 454-1304) above
T2 sequence (Q9BWJ5 whole entry, further chain, the tested form may be a part): as the sequence (Q9BWJ5 whole entry, further chain, the tested form may be a part) above

SMILES: CCC(O)C(C)C1OC1CC(C)(O)C=CC=C(C)C1OC(=O)CC(O)CCC(C)(O)C(OC(=O)N2CCN(C3CCCCCC3)CC2)C=CC1C (stereo not drawn) [Compound E7107]
- Kd [1]: 3.6 nM and ~3.6 nM
- IC50 [2]: 67 nM
- sensitization (enhanced potency in PHF5A^R38C vs wild type) (HCT116-PHF5A^R38C; GI50 R38C vs wild type, n = 2): twofold
- GI50 (HCT116-PHF5A^R38C; Homo sapiens, 72 h, CellTiter-Glo, read-out: HCT116-PHF5A^R38C GI50): 1.2 nM
- PHF5A^R38C sensitization phenotype (words) (HCT116-PHF5A^R38C; R38C vs wild type): sensitization
- resistance conferred by SF3B1^R1074H and PHF5A^Y36C [3]: > 500 fold
